The values below are quoted from earlier work in publication PMC9569940, “Discovery and In Vivo Efficacy of Trace Amine-Associated Receptor 1 (TAAR1) Agonist 4-(2-Aminoethyl)-N-(3,5-dimethylphenyl)piperidine-1-carboxamide Hydrochloride (AP163) for the Treatment of Psychotic Disorders” (International Journal of Molecular Sciences, 2022).

Molecules are shown by their SMILES.

The series deals with T1, TAAR1 (Homo sapiens, UniProt Q96RJ0).
T1 construct: expressed in transfected cells; host or cells: HEK-293 cells, transient transfection
T1 sequence (Q96RJ0 1-339): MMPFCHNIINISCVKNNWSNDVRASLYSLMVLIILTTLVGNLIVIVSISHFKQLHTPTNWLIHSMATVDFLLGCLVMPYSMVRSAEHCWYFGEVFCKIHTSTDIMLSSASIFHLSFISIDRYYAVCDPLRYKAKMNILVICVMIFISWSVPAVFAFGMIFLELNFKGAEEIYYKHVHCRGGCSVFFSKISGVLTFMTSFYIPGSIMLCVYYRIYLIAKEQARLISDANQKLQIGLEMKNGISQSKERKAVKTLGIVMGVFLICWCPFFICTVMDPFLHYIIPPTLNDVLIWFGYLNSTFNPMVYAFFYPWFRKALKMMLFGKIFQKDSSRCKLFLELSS
The arrangement: method as in PMID 11723224. The note with it: not tested in this paper; cited from earlier work.

Regarding `CCc1[nH]nc(C(=O)Nc2ccc([C@H]3CNCCO3)cc2)c1C` [Ralmitaront], the “TAAR1 Activity (reference ligand)” value was “Active”.
